“Also recorded” adds a separate entry of the source.
Legend:
[1] = test system: animal model of ischemic stroke; settings: given 6 hours after reperfusion; cited from earlier work
[2] = test system: blood brain barrier; test: Experiment 7: blood brain barrier permeability after intracarotid infusion (Evans blue content); settings: non-stroke rats, vs vehicle
Experimental: 30 μg/kg of BMX-001 (n=4), or same amount of saline (n=4) or mannitol (n=4) was given to normal male Wistar rats through the carotid artery. The rats received 100 μl 2% Evans blue intravenous infusion 30 min later and then intracardially perfused using 100 ml normal saline at 30 min following infusion. Brains were harvested and the Evans blue content was measured spectrophotometrically.

CC[n+]1ccccc1-c1c2nc(c(-c3cccc[n+]3CC)c3ccc([n-]3)c(-c3cccc[n+]3CC)c3nc(c(-c4cccc[n+]4CC)c4ccc1[n-]4)C=C3)C=C2.[Mn+3] [MnTE-2-PyP^5+]
Protection in ischemic stroke, in words [1]: provided protection

OC[C@@H](O)[C@@H](O)[C@H](O)[C@H](O)CO [Mannitol, reference compound]
Evans blue content in brain / blood brain barrier permeability, in words [2]: significant increase of Evans blue content; also recorded: did increase the blood brain barrier (BBB) permeability
